{
  "source": "patent US20240287614A1",
  "about": "“RECIPROCAL MICRORNA-MRNA PAIRINGS AS BIOMARKERS AND THERAPEUTIC TARGETS IN CANCER” (UNIVERSITY OF MARYLAND, EASTERN SHORE, priority 2023, published 2024)",
  "key": {"MTOR": {"system": "MTOR", "experiment": "RT-qPCR of MTOR expression after miRNA mimic transfection", "format": "cell-based, human", "conditions": "African American and European American prostate cancer cells; vs nonsense/scrambled (NS) miRNA control", "experimental": "(§1) […] RC77 T/E, a primary prostate cancer cell line derived from a patient, was kindly provided by Dr. Johng Rhim at Center for Prostate Disease Research (CPDR) in Rockville, MD. LNCaP and PC-3 were served as prostate cancer cell line models, and RC77 T/E and MDA PCa 2b were served as prostate cancer cell models in the study. The cells were cultured in specific cell culture media, LNCaP was cultured in RPMI with 10% fetal bovine serum (FBS), PC-3 was cultured in DMEM with 10% FBS, MDA PCa 2b were cultured in BRFF-HPC1 with 20% FBS and RC77 T/E was cultured in Keratinocyte SFM with Human Recombinant Epidermal Growth Factor (EGF 1-53) and Bovine Pituitary Extract (BPE). Cells were maintained at 37° C. in a 5% CO2 incubator. LNCaP, PC-3 and MDA PCa 2b cells were seeded at density 3×10^4 cells/well in 6-well plates. RC77 T/E cells were seeded at density 5×10^4 cells/well in 6-well plates. […]\nFor the measurement of gene expression level, total RNA was isolated using miRNeasy Mini Kit (50) (Qiagen) from the prostate cancer cells used in the study. Quantification of total RNA samples were done using NanoVue Plus spectrophotometer (GE Healthcare). […] Reverse transcription was performed using iScript Reverse Transcription Supermix kit (Bio-Rad) to generate cDNA then followed by performing quantitative PCR (qPCR) assays using SsoAdvanced Universal SYBR Green supermix kit (Bio-Rad). […]"}, "[1]": {"system": "prostate cancer (LNCaP and PC-3) and prostate cancer (RC77 T/E and MDA PCa 2b) cell lines", "experiment": "BrdU-labeling cell proliferation assay", "format": "cell-based, human", "conditions": "PC-3, RC77 T/E and MDA PCa 2b, 48 h transfection, vs NS", "experimental": "as §1\nLNCaP, PC-3, RC77 T/E and MDA PCa 2b cells were seeded at density 3×10^4 cells/well in 6-well culture plates. […] 100 μL of stop solution was used to stop further reaction and followed by checking absorbance at dual wavelengths of 450 nm and 540 nm using Multiskan FC microplate photometer (Thermo Scientific)."}, "[2]": {"system": "HT-29, SW620, MDA MB 231, MCF7, A549, and H1299", "experiment": "Caspase 3/7 activity-based apoptosis assay, colon, breast and lung cancer cell lines", "set-up": "species or system human", "experimental": "HT-29, SW620, MDA MB 231, MCF7, A549, and H1299 were seeded at a density of 3×10^4 cells/well in 96-well plates. The cells were grown overnight and then followed by transfections. After 24 h, fresh media were applied to replace the transfection reagent-containing media with […] of docetaxel or vehicle, then the cells were incubated for an additional 24 h. The Apo-ONE Caspase-3/7 Assay Kit (Promega Corporation) was used to measure apoptosis according to the protocol described by the manufacturer. Then, 100 μL of homogeneous Caspase-3/7 reagent was added to each well and the plate incubated at room temperature for 30 min to 2 h. Fluorescence was detected for measuring (at wavelengths of 499/521 nm excitation/emission) the apoptosis state (Caspase 3/7 activity) using Biotek Synergy HT Microplate Reader (BioTek)."}},
  "data": [
    {"substance": "miR-99b-5p mimic: miRNA mimic of miR-99b-5p (SEQ ID NO: 2, CACCCGUAGAACCGACCUUGCG), purchased from Ambion (listed as RNA, chemistry not given here; listed as Homo sapiens)", "values": [
      {"measurement": "MTOR expression (RT-qPCR)", "setting": "MTOR", "result": "decreased"},
      {"measurement": "cell proliferation (BrdU labeling)", "setting": "[1]", "result": "reduction"},
      {"measurement": "cell apoptosis (caspase 3/7 activity) in the presence of docetaxel", "setting": "[2]; HT-29, SW620, MCF-7, A549, H1299, 11 mM of docetaxel, 24 h", "result": "moderate to significant cell apoptosis"},
      {"measurement": "apoptosis (caspase 3/7 activity), single agent", "setting": "[2]; colon, breast, lung cancer cells, without docetaxel (vehicle)", "result": "not sufficient to initiate significant apoptosis"}
    ]}
  ]
}
